Consider 11 compounds from patent US12350270B2, “Antimalarial agents” (Merck Sharp & Dohme LLC, priority 2019, dated 2025).

As usually defined, the EC50 is the concentration at which the effect is half-maximal. A high value points to weaker potency.

The test system of the first assay is parasites (ring stage, in human red blood cell culture). Nature of the assay: Parasite LDH growth assay (antiparasite potency, Parasite Assay). Type of assay: cell-based, Plasmodium falciparum. The conditions noted are these: 0.7% rings, 2% haematocrit, 72 hours at 37° C., LDH readout of parasite growth. The procedure, abridged:
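Ring-stage parasites at 0.7% parasitemia and 2% haematocrit, in RPMI-Hepes/bicarbonate with 5% heat-inactivated human serum and 0.5% albumax, were added to compound-containing medium. Cultures grew 72 h at 37 °C in gassed humidified boxes. Plates were then frozen overnight at −80 °C, thawed 4 h, and growth was measured by LDH assay.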
In the case of `CCOC(=O)C1(C)Oc2ccccc2C1NC(=O)c1ccc2c(c1)[C@H](N1C(=N)NC(CC)(CC)CC1=O)CCO2` (single isomer, unassigned) [Example 65A], the EC50 amounted to 68 nM. The same measure, in the same setting: the same measure for `CC(C)[C@]1(C)CC(=O)N([C@@H]2CC(C)(C)Oc3ccc(C(=O)N[C@@H]4c5ccccc5OC[C@H]4O)cc32)C(=N)N1` [Example 40A, (R)-N-((3S,4R)-3-hydroxychroman-4-yl)-4-((S)-2-imino-4-isopropyl-4-methyl-6-oxotetrahydropyrimidin-1(2H)-yl)-2,2-dimethylchromane-6-carboxamide]: 69.5 nM. In the case of `CC[C@]1(C)CC(=O)N(C2CC(C)Oc3ccc(C(=O)N[C@@H]4c5ccccc5OC[C@@]4(C)O)cc32)C(=N)N1` (single isomer, unassigned) [Example 181B], the EC50 amounted to 7.9 nM.

The assay is the same for the next values; noted with them: Plasmodium falciparum, Erythrocyte, 72 h, 0.7% rings, 2% haematocrit, 72 hours at 37° C., LDH readout of parasite growth.
On to `CC1(C)CC(=O)N([C@@H]2CC(C)(C)Oc3ccc(C(=O)N[C@@H]4c5cc(F)ccc5OC(C)(C)[C@H]4O)cc32)C(=N)N1` [Example 58B, (R)-N-((3S,4R)-6-fluoro-3-hydroxy-2,2-dimethylchroman-4-yl)-4-(2-imino-4,4-dimethyl-6-oxotetrahydropyrimidin-1(2H)-yl)-2,2-dimethylchromane-6-carboxamide], for which the concentration for a half-maximal effect (EC50) was determined as 3.8 nM.

With `CCC1(CC)CC(=O)N([C@H]2c3cc(C(=O)N[C@@H]4c5ccccc5OC(C)(C)[C@H]4O)ccc3OC[C@H]2COC)C(=N)N1` [Example 298, (3R,4R)-4-(4,4-diethyl-2-imino-6-oxotetrahydropyrimidin-1(2H)-yl)-N-((3S,4R)-3-hydroxy-2,2-dimethylchroman-4-yl)-3-(methoxymethyl)chromane-6-carboxamide], the half-maximal effective concentration (EC50) came out at 0.5 nM. As for `CCC1(CC)CC(=O)N([C@H]2c3cc(C(=O)N[C@@H]4c5ccccc5OC[C@@]4(C)O)ccc3O[C@]2(C)COC)C(=N)N1` [Example 279, (2S,3S)-3-(4,4-diethyl-2-imino-6-oxo-hexahydropyrimidin-1-yl)-N-[(3S,4R)-3-hydroxy-3-methyl-chroman-4-yl]-2-(methoxymethyl)-2-methyl-3H-benzofuran-5-carboxamide], the EC50 was determined as 31.4 nM. In the case of `CC[C@]1(C)CC(=O)N([C@H]2c3cc(C(=O)N[C@@H]4c5ccccc5OC(C)(C)[C@H]4O)ccc3OC[C@@H]2OC)C(=N)N1` [Example 255, (3R,4S)-4-[(4R)-4-ethyl-2-imino-4-methyl-6-oxo-hexahydropyrimidin-1-yl]-N-[(3S,4R)-3-hydroxy-2,2-dimethyl-chroman-4-yl]-3-methoxy-chromane-6-carboxamide], a half-maximal effect (EC50) was put at 3.3 nM. Still for that read-out and setting: to `CCC1(CC)CC(=O)N([C@@H]2C[C@@H](COCCOCCOCCNC(=O)OC(C)(C)C)Oc3ccc(C(=O)N[C@H]4CC(C)(C)Oc5ccccc54)cc32)C(=N)N1` [Example 314, tert-butyl N-[2-[2-[2-[[(2S,4R)-4-(4,4-diethyl-2-imino-6-oxo-hexahydropyrimidin-l-yl)-6-[[(4S)-2,2-dimethylchroman-4-yl]carbamoyl]chroman-2-yl]methoxy]ethoxy]ethoxy]ethyl]carbamate] belongs 7.3 nM; to `CCC1(CC)CC(=O)N([C@H]2c3cc(C(=O)N[C@@H]4c5ccccc5OC(C)(C)[C@H]4O)ccc3OC2(COC)COC)C(=N)N1` [Example 307], 3.2 nM; to `CC1(C)CC(=O)N([C@@H]2CC(C)(C)Oc3ccc(C(=O)N[C@@H]4c5ccccc5OC[C@H]4O)cc32)C(=N)N1` [Example 49A, (R)-N-((3S,4R)-3-hydroxychroman-4-yl)-4-(2-imino-4,4-dimethyl-6-oxotetrahydropyrimidin-1(2H)-yl)-2,2-dimethylchromane-6-carboxamide], 49 nM. Consider `CCC1(CC)CC(=O)N([C@@H]2C[C@@H](C)Oc3ccc(C(=O)N[C@@H]4c5ccccc5OC(C)(C)[C@H]4O)cc32)C(=N)N1` [Example 246, (2R,4R)-4-(4,4-diethyl-2-imino-6-oxo-hexahydropyrimidin-1-yl)-N-[(3S,4R)-3-hydroxy-2,2-dimethyl-chroman-4-yl]-2-methyl-chromane-6-carboxamide], for which it took 2 nM to reach a half-maximal effect (EC50).
